In patent publication US9902702B2, “Spirocycloheptanes as inhibitors of rock” (BRISTOL-MYERS SQUIBB COMPANY, priority 2014, dated 2018) one finds IC50 data, which are given here for 27 compounds.

Molecules are shown by their SMILES. pIC50: −log10 of the molar value.

ROCK2, sequence (O75116 whole entry, species assumed): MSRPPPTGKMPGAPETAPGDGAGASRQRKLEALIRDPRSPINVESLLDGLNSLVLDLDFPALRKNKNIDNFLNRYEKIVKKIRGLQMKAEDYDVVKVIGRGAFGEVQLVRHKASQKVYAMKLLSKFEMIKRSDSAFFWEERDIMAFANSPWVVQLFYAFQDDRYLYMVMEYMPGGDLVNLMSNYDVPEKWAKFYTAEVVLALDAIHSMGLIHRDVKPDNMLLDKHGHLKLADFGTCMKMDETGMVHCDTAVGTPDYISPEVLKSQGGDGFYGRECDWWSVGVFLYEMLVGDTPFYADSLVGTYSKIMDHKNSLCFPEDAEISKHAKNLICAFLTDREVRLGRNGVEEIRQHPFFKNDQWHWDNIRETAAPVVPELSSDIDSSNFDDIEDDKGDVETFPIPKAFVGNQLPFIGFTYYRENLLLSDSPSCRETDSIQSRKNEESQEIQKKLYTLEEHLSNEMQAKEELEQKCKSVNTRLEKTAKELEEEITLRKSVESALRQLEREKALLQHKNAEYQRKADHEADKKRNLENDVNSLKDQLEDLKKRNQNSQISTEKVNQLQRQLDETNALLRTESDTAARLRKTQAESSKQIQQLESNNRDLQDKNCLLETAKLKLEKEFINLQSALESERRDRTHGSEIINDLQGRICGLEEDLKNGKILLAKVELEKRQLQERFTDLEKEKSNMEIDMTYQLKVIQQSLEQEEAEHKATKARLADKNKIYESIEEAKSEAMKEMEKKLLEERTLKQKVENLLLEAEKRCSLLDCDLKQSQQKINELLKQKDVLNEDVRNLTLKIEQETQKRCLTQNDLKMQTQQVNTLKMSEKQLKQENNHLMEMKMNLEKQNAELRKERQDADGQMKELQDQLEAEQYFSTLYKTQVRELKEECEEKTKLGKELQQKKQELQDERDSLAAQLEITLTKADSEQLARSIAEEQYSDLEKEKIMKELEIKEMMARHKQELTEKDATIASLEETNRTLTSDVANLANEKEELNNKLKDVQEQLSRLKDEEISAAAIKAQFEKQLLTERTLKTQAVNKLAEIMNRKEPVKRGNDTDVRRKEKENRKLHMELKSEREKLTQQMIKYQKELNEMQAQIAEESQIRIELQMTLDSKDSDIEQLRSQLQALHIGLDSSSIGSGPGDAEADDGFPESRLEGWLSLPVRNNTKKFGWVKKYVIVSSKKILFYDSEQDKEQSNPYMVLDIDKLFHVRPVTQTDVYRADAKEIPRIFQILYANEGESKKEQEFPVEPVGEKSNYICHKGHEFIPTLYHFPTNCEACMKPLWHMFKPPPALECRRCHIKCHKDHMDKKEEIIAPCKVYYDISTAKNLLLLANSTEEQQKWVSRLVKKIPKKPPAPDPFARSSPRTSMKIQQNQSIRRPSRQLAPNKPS

The assay addresses ROCK2 (Homo sapiens, UniProt O75116). The assay can be described thus: ROCK assay: phosphorylation of FITC peptide substrate, LABCHIP 3000 mobility shift. It counts as biochemical. As to conditions: 5 μM ATP, 1.5 μM peptide substrate; read-out: ROCK2 Activity (ROCK IC50 range). A digest of the protocol: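 IC50 values come from curve-fitting percent kinase inhibition across a compound dilution series. The reaction is started with Rho kinase variant in HEPES pH 7.5 buffer with MgCl2, Brij-35 and DTT, with 5 μM ATP, 1.5 μM FITC-labelled peptide and under 2% DMSO. After EDTA quench, product and substrate are separated by microfluidic mobility shift.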
Regarding `COc1ccccc1-c1ccc2c(C(=O)NC3CC4(C3)CC(c3n[nH]c(=O)c5ccccc35)C4)nn(CC(C)(C)O)c2c1` (stereo not drawn) [Example 157, 1-(2-hydroxy-2-methylpropyl)-6-(2-methoxyphenyl)-N-((αR)-6-(4-oxo-3,4-dihydrophthalazin-1-yl)spiro[3.3]heptan-2-yl)-1H-indazole-3-carboxamide], the pIC50 is 8.70 to 9.70.

As to `COc1cccc(-c2ccc3c(C(=O)NC4CC5(C4)CC(c4n[nH]c(=O)c6ccccc46)C5)nn(CC(C)(C)O)c3c2)c1` (stereo not drawn) [Example 158, 1-(2-hydroxy-2-methylpropyl)-6-(3-methoxyphenyl)-N-((αR)-6-(4-oxo-3,4-dihydrophthalazin-1-yl)spiro[3.3]heptan-2-yl)-1H-indazole-3-carobxamide], the pIC50 was 8.30 to 8.70.

As for `CC(C)(O)Cn1nc(C(=O)NC2CC3(C2)CC(c2n[nH]c(=O)c4ccccc24)C3)c2ccc(-c3c(F)cccc3F)cc21` (stereo not drawn) [Example 159, 6-(2,6-difluorophenyl)-1-(2-hydroxy-2-methylpropyl)-N-((αR)-6-(4-oxo-3,4-dihydrophthalazin-1-yl)spiro[3.3]heptan-2-yl)-1H-indazole-3-carboxamide], the negative-log IC50 (pIC50) was 8.30 to 8.70.

For `CC(C)(O)Cn1nc(C(=O)NC2CC3(C2)CC(c2n[nH]c(=O)c4ccccc24)C3)c2ccc(-c3ccccc3C#N)cc21` (stereo not drawn) [Example 160, 6-(2-cyanophenyl)-1-(2-hydroxy-2-methylpropyl)-N-((αR)-6-(4-oxo-3,4-dihydrophthalazin-1-yl)spiro[3.3]heptan-2-yl)-1H-indazole-3-carboxamide], the pIC50 is 8.70 to 9.70.

Take `CC(C)(O)Cn1nc(C(=O)NC2CC3(C2)CC(c2n[nH]c(=O)c4ccccc24)C3)c2ccc(-c3cnoc3)cc21` (stereo not drawn) [Example 161, 1-(2-hydroxy-2-methylpropyl)-6-(isoxazol-4-yl)-N-((αR)-6-(4-oxo-3,4-dihydrophthalazin-1-yl)psiro[3.3]heptan-2-yl)-1H-indazole-3-carboxamide]: the pIC50 is 7.82 to 8.29.

Consider `CC(C)(O)Cn1nc(C(=O)NC2CC3(C2)CC(F)(c2n[nH]c(=O)c4ccccc24)C3)c2ccccc21` (stereo not drawn) [Example 162, N-(6-fluoro-6-(4-oxo-3,4-dihydrophthalazin-1-yl)spiro[3.3]heptan-2-yl)-1-(2-hydroxy-2-methylpropyl)-1H-indazole-3-carboxamide], for which the negative-log IC50 (pIC50) is 7.00 to 7.82.

With `CC(C)(O)Cn1nc(C(=O)NC2CC3(C2)CC(F)(c2n[nH]c(=O)c4ccccc24)C3)c2ccc(F)cc21` (stereo not drawn) [Example 163, 6-fluoro-N-(6-fluoro-6-(4-oxo-3,4-dihydrophthalazin-1-yl)spiro[3.3]heptan-2-yl)-1-(2-hydroxy-2-methylpropyl)-1H-indazole-3-carboxamide], the pIC50 is 7.00 to 7.82.

With `O=C(NC1CC2(C1)CC(F)(c1n[nH]c(=O)c3ccccc13)C2)c1cnn2ccccc12` (stereo not drawn) [Example 164, N-(6-fluoro-6-(4-oxo-3,4-dihydrophthalazin-1-yl)spiro[3.3]heptan-2-yl)pyrazolo[1,5-α]pyridine-3-carboxamide], the pIC50 is 7.00 to 7.82.

`O=C(N[C@H]1CC2(C1)C[C@H](c1n[nH]c(=O)c3ccccc31)C2)c1cnn2cc(N3CCCC3=O)ccc12` (stereo partly drawn) [Example 165, N-((aR)-6-(4-oxo-3,4-dihydrophthalazin-1-yl)spiro[3.3]heptan-2-yl)-6-(2-oxopyrrolidin-1-yl)pyrazolo[1,5-a]pyridine-3-carboxamide]: the pIC50 was 7.82 to 8.29.

For `O=C(NC1CC2(C1)CC(c1n[nH]c(=O)c3ccccc13)C2)c1cnn2cc(C3CC3)ccc12` (stereo not drawn) [Example 166, 6-cyclopropyl-N-((αR)-6-(4-oxo-3,4-dihydrophthalazin-1-yl)spiro[3.3]heptan-2-yl)pyrazolo[1,5-α]pyridine-3-carboxamide], the pIC50 was 8.70 to 9.70.

Regarding `O=C(NC1CC2(C1)CC(c1n[nH]c(=O)c3ccccc13)C2)c1cnn2cc(-c3cnn(C(F)F)c3)ccc12` (stereo not drawn) [Example 167, 6-(1-(difluoromethyl)-1H-pyrazol-4-yl)-N-((αR)-6-(4-oxo-3,4-dihydrophthalazin-1-yl)spiro[3.3]heptan-2-yl)pyrazolo[1,5-α]pyridine-3-carboxamide], the pIC50 is 8.70 to 9.70.

Turning to `N#Cc1ccc2c(C(=O)NC3CC4(C3)CC(c3n[nH]c(=O)c5ccccc35)C4)cnn2c1` (stereo not drawn) [Example 168, 6-cyano-N-((αR)-6-(4-oxo-3,4-dihydrophthalazin-1-yl)spiro[3.3]heptan-2-yl)pyrazolo[1,5-α]pyridine-3-carboxamide], the pIC50 is 7.00 to 7.82.

As to `O=C(NC1CC2(C1)CC(c1n[nH]c(=O)c3ccccc13)C2)c1cnn2cc(-n3ccccc3=O)ccc12` (stereo not drawn) [Example 169, N-((αR)-6-(4-oxo-3,4-dihydrophthalazin-1-yl)spiro[3.3]heptan-2-yl)-6-(2-oxopyridin-1(2H)-yl)pyrazolo[1,5-α]pyridine-3-carboxamide], the pIC50 was 7.82 to 8.29.

On to `Cn1cc(-c2ccc3c(C(=O)NC4CC5(C4)CC(c4n[nH]c(=O)c6ccccc46)C5)cnn3c2)cn1` (stereo not drawn) [Example 170, 6-(1-methyl-1H-pyrazol-4-yl)-N-((αR)-6-(4-oxo-3,4-dihydrophthalazin-1-yl)spiro[3.3]heptan-2-yl)pyrazolo[1,5-α]pyridine-3-carboxamide], for which the pIC50 was 8.70 to 9.70.

On to `O=C(NC1CC2(C1)CC(c1n[nH]c(=O)c3ccccc13)C2)c1cnn2cc(-c3cnn(CC(O)C(F)(F)F)c3)ccc12` [Example 171, N-((αR)-6-(4-oxo-3,4-dihydrophthalazin-1-yl)spiro[3.3]heptan-2-yl)-6-(1-((S)-3,3,3-trifluoro-2-hydroxypropyl)-1H-pyrazol-4-yl)pyrazolo[1,5-α]pyridine-3-carboxamide], for which the pIC50 was 8.30 to 8.70.

`O=C(NC1CC2(C1)CC(c1n[nH]c(=O)c3ccccc13)C2)c1cnn2cc(-c3c[nH]nc3C(F)(F)F)ccc12` (stereo not drawn) [Example 172, N-((αR)-6-(4-oxo-3,4-dihydrophthalazin-1-yl)spiro[3.3]heptan-2-yl)-6-(3-(trifluoromethyl)-1H-pyrazol-4-yl)pyrazolo[1,5-α]pyridine-3-carboxamide]: the pIC50 is 8.30 to 8.70.

Take `O=C(NC1CC2(C1)CC(c1n[nH]c(=O)c3ccccc13)C2)c1cnn2cc(-c3nccs3)ccc12` (stereo not drawn) [Example 173, N-((αR)-6-(4-oxo-3,4-dihydrophthalazin-1-yl)spiro[3.3]heptan-2-yl)-6-(thiazol-2-yl)pyrazolo[1,5-α]pyridine-3-carboxamide]: the pIC50 was 8.70 to 9.70.

As to `O=C(NC1CC2(C1)CC(c1n[nH]c(=O)c3ccccc13)C2)c1cnn2cc(-c3cn[nH]c3)ccc12` (stereo not drawn) [Example 174, N-((αR)-6-(4-oxo-3,4-dihydrophthalazin-1-yl)spiro[3.3]heptan-2-yl)-6-(1H-pyrazol-4-yl)pyrazolo[1,5-α]pyridine-3-carboxamide], the negative logarithm of the IC50 (pIC50) was 8.70 to 9.70.

For `Cc1nnn(C)c1-c1ccc2c(C(=O)NC3CC4(C3)CC(c3n[nH]c(=O)c5ccccc35)C4)cnn2c1` (stereo not drawn) [Example 175, 6-(1,4-dimethyl-1H-1,2,3-triazol-5-yl)-N-((αR)-6-(4-oxo-3,4-dihydrophthalazin-1-yl)spiro[3.3]heptan-2-yl)pyrazolo[1,5-α]pyridine-3-carboxamide], the pIC50 was 7.00 to 7.82.

Consider `O=C(NC1CC2(C1)CC(c1n[nH]c(=O)c3ccccc13)C2)c1cnn2cc(-n3ccnc3)ccc12` (stereo not drawn) [Example 176, 6-(1H-imidazol-1-yl)-N-((αR)-6-(4-oxo-3,4-dihydrophthalazin-1-yl)spiro[3.3]heptan-2-yl)pyrazolo[1,5-α]pyridine-3-carboxamide], for which the pIC50 is 7.82 to 8.29.

On to `O=C(N[C@H]1CC2(C1)C[C@H](c1n[nH]c(=O)c3ccccc31)C2)c1cnn2cc(-n3cccn3)ccc12` (stereo partly drawn) [Example 177, N-((αR)-6-(4-oxo-3,4-dihydrophthalazin-1-yl)spiro[3.3]heptan-2-yl)-6-(1H-pyrazol-1-yl)pyrazolo[1,5-α]pyridine-3-carboxamide], for which the pIC50 was 8.70 to 9.70.

Turning to `O=C(NC1CC2(C1)CC(c1n[nH]c(=O)c3ccccc13)C2)c1cnn2cc(-n3cncn3)ccc12` (stereo not drawn) [Example 178, N-((αR)-6-(4-oxo-3,4-dihydrophthalazin-1-yl)spiro[3.3]heptan-2-yl)-6-(1H-1,2,4-triazol-1-yl)pyrazolo[1,5-α]pyridine-3-carboxamide], the pIC50 is 8.30 to 8.70.

As for `COCCOc1ccc2c(C(=O)NC3CC4(C3)CC(c3n[nH]c(=O)c5ccccc35)C4)cnn2c1` (stereo not drawn) [Example 179, 6-(2-methoxyethoxy)-N-((αR)-6-(4-oxo-3,4-dihydrophthalazin-1-yl)spiro[3.3]heptan-2-yl)pyrazolo[1,5-α]pyridine-3-carboxamide], the pIC50 was 8.70 to 9.70.

As to `O=C(NC1CC2(C1)CC(c1n[nH]c(=O)c3ccccc13)C2)c1cnn2cc(-n3ccc(=O)cc3)ccc12` (stereo not drawn) [Example 180, N-((αR)-6-(4-oxo-3,4-dihydrophthalazin-1-yl)spiro[3.3]heptan-2-yl)-6-(4-oxopyridin-1(4H)-yl)pyrazolo[1,5-α]pyridine-3-carboxamide], the pIC50 is 7.00 to 7.82.

For `[H][C@]1(c2n[nH]c(=O)c3ccccc32)C[C@]2(C[C@@H](NC(=O)c3cnn4cc(OCCO)ccc34)C2)C1` (stereo partly drawn) [Example 181], the pIC50 was 8.70 to 9.70.

As to `O=C(N[C@H]1CC2(C1)C[C@H](c1n[nH]c(=O)c3ccccc31)C2)c1cnn2cc(OCCN3CC(F)C3)ccc12` (stereo partly drawn) [Example 182, 6-(2-(3-fluoroazetidin-1-yl)ethoxy)-N-((aR)-6-(4-oxo-3,4-dihydrophthalazin-1-yl)spiro[3.3]heptan-2-yl)pyrazolo[1,5-a]pyridine-3-carboxamide], the pIC50 is 8.30 to 8.70.

With `CN(C)CCOc1ccc2c(C(=O)NC3CC4(C3)CC(c3n[nH]c(=O)c5ccccc35)C4)cnn2c1` [Example 183, 6-(2-(dimethylamino)ethoxy)-N-((aR)-6-(4-oxo-3,4-dihydrophthalazin-1-yl)spiro[3.3]heptan-2-yl)pyrazolo[1,5-a]pyridine-3-carboxamide], the negative-log IC50 (pIC50) was 8.30 to 8.70.

Broadly, the pIC50 is the negative decadic logarithm of the IC50, by convention in mol/L.
